In patent US4680411A, “Pyrano[2,3-g]indoles useful as anti-ulcerous, anti-inflammatory and antalgic agent” (Societe de Recherches Industrielles, priority 1980, dated 1987):

What was measured:
[1] = Toxicity, LD50 (DL50) I.P.; conditions: in vivo, ip
Text: The pharmacological tests carried out particularly with regard to toxicity, the ulcers provoked by aspirin and serotonin, and the anti-inflammatory and antalgic effects, are summarised hereinafter. The methods used are recalled hereinafter.
(§1) Table III hereinbelow deals with the LD50 and with the inhibition of the ulcers caused by aspirin, the inhibition of the oedema provoked by carragenine and cramping (the products to be tested being, in the latter two cases, administered by the IP route at a dose equal to one tenth of the LD50 IP).

[2] = Inhibition of cramping (antalgic effect); type: in vivo; conditions: IP, dose equal to one tenth of the LD50 IP
Text: (§2) The techniques relative to the anti-inflammatory effects (oedema caused by carragenine) and antalgic effects (cramping) which were used are the conventional techniques described in the prior art.
as §1

[3] = Inhibition of ulcer provoked by aspirin; type: in vivo, male Wistar rats; conditions: Rattus norvegicus; rats; 100 mg/kg IP at t=0 and again at t=18 h; aspirin 192 mg/kg per os; sacrificed at t=22 h; read-out: Aspirine induced ulcer % inhibition
Description: The experiment is carried out on male Wistar rats weighing 180 to 200 g.
At t=0 the rats are made to fast and a first administration of the product to be tested, at a dose of 100 mg/kg, is made IP. At t=18 hours, 2 ml of an ulcer-forming suspension with 192 mg of aspirin/kg are administered per os then a second IP administration of the product to be tested, at a dose of 100 mg/kg, is made.
At t=22 hours, the animals are sacrificed and the ulcers are marked as follows: small punctiform ulcers: mark 1 more extensive ulcers: mark 3 very extensive or very deep ulcers: mark 9
as §1

[4] = Clinic: treatment of pain in man; type: in vivo
[5] = Clinic: treatment of ulcers in man; type: in vivo
[6] = Inhibition of oedema provoked by carragenine (anti-inflammatory effect); type: in vivo; conditions: IP, dose equal to one tenth of the LD50 IP
Text: as §2, §1

[7] = Inhibition of ulcer provoked by serotonin (Hashizume technique); type: in vivo, male Sprague-Dawley rats; conditions: serotonin 60 mg/kg sub-cutaneous
Description: ULCER PROVOKED BY SEROTONIN The technique used is the one described by Hashizume, in Arch. Int. Pharmacodyn. 236, 96-108, (1978). The experiment is carried out on 3 batches of male Sprague-Dawley rats. Each batch includes 20 animals. The first batch constitutes the controls, the second is treated with Carbenoxolone, the third is treated with the product to be tested. The animals are made to fast 24 hours before the experiment. At t=0, the product to be tested is administered by the IP route to the third batch, 100 mg/kg of Carbenoxolone are administered per os to the second batch. At t=+10 mins., a sub-cutaneous injection is made of serotonin at 60 mg/kg in the three batches. At t=+250 mins., the animals are sacrificed. The stomachs are removed and spread out and the ulcers are marked as follows: small ulcer +=1 average ulcer ++=3 large ulcer +++=9 The results relative to the inhibition of the ulcers provoked by serotonin are given in Table IV hereinbelow with the doses of the products tested.

[8] = Clinic: treatment of oedemas in man; type: in vivo

SMILES	LD50 ([1]; I.P.) [mg/kg]	Cramping % inhibition [2] [%]	inhibition in vivo at 100 mg/kg [3] [%]	results in the treatment of ulcers [5]	Carragheenine oedema % inhibition [6] [%]	results in the treatment of oedemas [8]	further results
COc1cc2cc(C(=O)O)[nH]c2c2c1OCCC2 [Example 6, 5-methoxy-7,8,9-trihydro-pyrano[2,3-g]indole-2-carboxylic acid]	> 800	66	23	–	–	–	results in the treatment of pain [4]: excellent results
COc1cc2cc[nH]c2c2c1OCCC2=NO [Example 23]	–	51	40	excellent results	52	–	DLo [1]: > 800 mg/kg; Serotonine ulcer % inhibition ([7]; 92 mg/kg IP): 52%
COc1cc2cc[nH]c2c2c1OCCC2=O [Example 21, 5-methoxy-9-oxo-7,8-dihydro-pyrano[2,3-g]indole]	600	37	60	excellent results	49	–	Serotonine ulcer % inhibition ([7]; 60 mg/kg IP): 87%
c1cc2ccc3c(c2[nH]1)CCCO3 [Example 7, 7,8,9-trihydro-pyrano[2,3-g]indole]	750	14	46	excellent results	–	–	Serotonine ulcer % inhibition ([7]; 75 mg/kg IP): 64%
O=C(O)c1cc2cc(Cl)c3c(c2[nH]1)CCCO3 [Example 5, 5-chloro-7,8,9-trihydro-pyrano[2,3-g]indole-2-carboxylic acid]	300	35	28	–	30	excellent results	–
COc1cc2cc[nH]c2c2c1OCCC2O (stereo not shown) [Example 24]	1000	60	–	–	40	excellent results	–
CC1(C)[C@@H](OC(=O)CCC(=O)O)CC[C@]2(C)[C@H]3C(=O)C=C4[C@@H]5C[C@@](C)(C(=O)O)CC[C@]5(C)CC[C@@]4(C)[C@]3(C)CC[C@@H]12 [Carbenoxolone, reference compound]	–	–	–	–	–	–	Serotonine ulcer % inhibition ([7]; Carbenoxolone 60 mg/kg IP as printed in table, method says 100 mg/kg per os): 64%
CN(C)Cc1c[nH]c2c3c(ccc12)OCCC3 [Example 14, 3-(7,8,9-trihydro-pyrano[2,3-g]indolyl)-N,N-dimethylmethylamine]	–	67	47.5	excellent results	22	–	LD50 [1]: 180 mg/kg
COc1cc2cc(C(=O)O)[nH]c2c2c1OCCC2=O [Example 19, 5-methoxy-9-oxo-7,8-dihydro-pyrano[2,3-g]indole-2-carboxylic acid]	> 1000	–	49	excellent results	–	–	–
COc1cc2cc[nH]c2c2c1OCCC2 [Example 9, 5-methoxy-7,8,9-trihydro-pyrano[2,3-g]indole]	650	41	51	–	39	excellent results	–
Clc1cc2cc[nH]c2c2c1OCCC2 [Example 8, 5-chloro-7,8,9-trihydro-pyrano[2,3-g]indole]	900	26	42.5	excellent results	33	–	Serotonine ulcer % inhibition ([7]; 45 mg/kg IP): 75%
O=C(O)c1cc2ccc3c(c2[nH]1)CCCO3 [Example 4, 7,8,9-trihydro-pyrano[2,3-g]indole-2-carboxylic acid]	600	36	11	–	35	excellent results	–
